From PubChem BioAssay (NCI)
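Five concentrations, 48 hours, 96-well plates. Here, GI50 denotes the concentration required for 50% inhibition of growth. TGI marks complete inhibition of growth.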

Experiments:
Test in all cases: inhibition of tumour cell growth, NCI panel, 48 h
786-0 renal = test system: 786-0 renal
A498 renal = test system: A498 renal
A549 NSCLC = test system: A549 NSCLC
ACHN renal = test system: ACHN renal
BT-549 breast = test system: BT-549 breast
CAKI-1 renal = test system: CAKI-1 renal
CCRF-CEM leukemia = test system: CCRF-CEM leukemia
COLO 205 colon = test system: COLO 205 colon
DU-145 prostate = test system: DU-145 prostate
HCC-2998 colon = test system: HCC-2998 colon
HCT-116 colon = test system: HCT-116 colon
HCT-15 colon = test system: HCT-15 colon
HL-60(TB) leukemia = test system: HL-60(TB) leukemia
HOP-62 NSCLC = test system: HOP-62 NSCLC
HOP-92 NSCLC = test system: HOP-92 NSCLC
HS 578T breast = test system: HS 578T breast
HT29 colon = test system: HT29 colon
IGROV1 ovarian = test system: IGROV1 ovarian
K-562 leukemia = test system: K-562 leukemia
KM12 colon = test system: KM12 colon
LOX IMVI melanoma = test system: LOX IMVI melanoma
M14 melanoma = test system: M14 melanoma
MALME-3M melanoma = test system: MALME-3M melanoma
MCF7 breast = test system: MCF7 breast
MDA-MB-231 breast = test system: MDA-MB-231 breast
MDA-MB-435 = test system: MDA-MB-435
MOLT-4 leukemia = test system: MOLT-4 leukemia
NCI-H226 lung = test system: NCI-H226 lung
NCI-H23 lung = test system: NCI-H23 lung
NCI-H460 lung = test system: NCI-H460 lung
NCI-H522 lung = test system: NCI-H522 lung
NCI/ADR-RES ovarian = test system: NCI/ADR-RES ovarian
OVCAR-3 ovarian = test system: OVCAR-3 ovarian
OVCAR-4 ovarian = test system: OVCAR-4 ovarian
OVCAR-5 ovarian = test system: OVCAR-5 ovarian
OVCAR-8 ovarian = test system: OVCAR-8 ovarian
PC-3 prostate = test system: PC-3 prostate
RPMI-8226 leukemia = test system: RPMI-8226 leukemia
RXF 393 renal = test system: RXF 393 renal
SF-268 CNS = test system: SF-268 CNS
SF-295 CNS = test system: SF-295 CNS
SF-539 CNS = test system: SF-539 CNS
SK-MEL-2 melanoma = test system: SK-MEL-2 melanoma
SK-MEL-28 melanoma = test system: SK-MEL-28 melanoma
SK-MEL-5 melanoma = test system: SK-MEL-5 melanoma
SK-OV-3 ovarian = test system: SK-OV-3 ovarian
SN12C renal = test system: SN12C renal
SNB-19 CNS = test system: SNB-19 CNS
SNB-75 CNS = test system: SNB-75 CNS
SR leukemia = test system: SR leukemia
SW-620 colon = test system: SW-620 colon
T-47D breast = test system: T-47D breast
TK-10 renal = test system: TK-10 renal
U251 CNS = test system: U251 CNS
UACC-257 melanoma = test system: UACC-257 melanoma
UACC-62 melanoma = test system: UACC-62 melanoma
UO-31 renal = test system: UO-31 renal

C[C@@H](CS(C)(=O)=O)Nc1ncc2cc(Oc3ccc(F)cc3F)c(=O)n(C)c2n1
GI50 (786-0 renal): > 25 µM
TGI (786-0 renal): > 25 µM
GI50 (A498 renal): > 25 µM
TGI (A498 renal): > 25 µM
GI50 (A549 NSCLC): > 25 µM
TGI (A549 NSCLC): > 25 µM
GI50 (ACHN renal): > 25 µM
TGI (ACHN renal): > 25 µM
GI50 (BT-549 breast): > 25 µM
TGI (BT-549 breast): > 25 µM
GI50 (CAKI-1 renal): > 25 µM
TGI (CAKI-1 renal): > 25 µM
GI50 (CCRF-CEM leukemia): > 25 µM
TGI (CCRF-CEM leukemia): > 25 µM
GI50 (COLO 205 colon): > 25 µM
TGI (COLO 205 colon): > 25 µM
GI50 (DU-145 prostate): > 25 µM
TGI (DU-145 prostate): > 25 µM
GI50 (HCC-2998 colon): > 25 µM
TGI (HCC-2998 colon): > 25 µM
GI50 (HCT-116 colon): > 25 µM
TGI (HCT-116 colon): > 25 µM
GI50 (HCT-15 colon): > 25 µM
TGI (HCT-15 colon): > 25 µM
GI50 (HL-60(TB) leukemia): > 25 µM
TGI (HL-60(TB) leukemia): > 25 µM
GI50 (HOP-62 NSCLC): > 25 µM
TGI (HOP-62 NSCLC): > 25 µM
GI50 (HOP-92 NSCLC): > 6.75 µM
TGI (HOP-92 NSCLC): > 25 µM
GI50 (HS 578T breast): > 25 µM
TGI (HS 578T breast): > 25 µM
GI50 (HT29 colon): > 25 µM
TGI (HT29 colon): > 25 µM
GI50 (IGROV1 ovarian): > 25 µM
TGI (IGROV1 ovarian): > 25 µM
GI50 (K-562 leukemia): > 25 µM
TGI (K-562 leukemia): > 25 µM
GI50 (KM12 colon): > 25 µM
TGI (KM12 colon): > 25 µM
GI50 (LOX IMVI melanoma): > 25 µM
TGI (LOX IMVI melanoma): > 25 µM
GI50 (M14 melanoma): > 25 µM
TGI (M14 melanoma): > 25 µM
GI50 (MALME-3M melanoma): > 25 µM
TGI (MALME-3M melanoma): > 25 µM
GI50 (MCF7 breast): > 25 µM
TGI (MCF7 breast): > 25 µM
GI50 (MDA-MB-231 breast): > 25 µM
TGI (MDA-MB-231 breast): > 25 µM
GI50 (MDA-MB-435): > 25 µM
TGI (MDA-MB-435): > 25 µM
GI50 (MOLT-4 leukemia): > 25 µM
TGI (MOLT-4 leukemia): > 25 µM
GI50 (NCI-H226 lung): > 25 µM
TGI (NCI-H226 lung): > 25 µM
GI50 (NCI-H23 lung): > 25 µM
TGI (NCI-H23 lung): > 25 µM
GI50 (NCI-H460 lung): > 25 µM
TGI (NCI-H460 lung): > 25 µM
GI50 (NCI-H522 lung): > 25 µM
TGI (NCI-H522 lung): > 25 µM
GI50 (NCI/ADR-RES ovarian): > 25 µM
TGI (NCI/ADR-RES ovarian): > 25 µM
GI50 (OVCAR-3 ovarian): > 25 µM
TGI (OVCAR-3 ovarian): > 25 µM
GI50 (OVCAR-4 ovarian): > 25 µM
TGI (OVCAR-4 ovarian): > 25 µM
GI50 (OVCAR-5 ovarian): > 25 µM
TGI (OVCAR-5 ovarian): > 25 µM
GI50 (OVCAR-8 ovarian): > 25 µM
TGI (OVCAR-8 ovarian): > 25 µM
GI50 (PC-3 prostate): > 25 µM
TGI (PC-3 prostate): > 25 µM
GI50 (RPMI-8226 leukemia): > 25 µM
TGI (RPMI-8226 leukemia): > 25 µM
GI50 (RXF 393 renal): > 25 µM
TGI (RXF 393 renal): > 25 µM
GI50 (SF-268 CNS): > 25 µM
TGI (SF-268 CNS): > 25 µM
GI50 (SF-295 CNS): > 25 µM
TGI (SF-295 CNS): > 25 µM
GI50 (SF-539 CNS): > 25 µM
TGI (SF-539 CNS): > 25 µM
GI50 (SK-MEL-2 melanoma): > 25 µM
TGI (SK-MEL-2 melanoma): > 25 µM
GI50 (SK-MEL-28 melanoma): > 25 µM
TGI (SK-MEL-28 melanoma): > 25 µM
GI50 (SK-MEL-5 melanoma): > 25 µM
TGI (SK-MEL-5 melanoma): > 25 µM
GI50 (SK-OV-3 ovarian): > 25 µM
TGI (SK-OV-3 ovarian): > 25 µM
GI50 (SN12C renal): > 25 µM
TGI (SN12C renal): > 25 µM
GI50 (SNB-19 CNS): > 25 µM
TGI (SNB-19 CNS): > 25 µM
GI50 (SNB-75 CNS): > 25 µM
TGI (SNB-75 CNS): > 25 µM
GI50 (SR leukemia): > 25 µM
TGI (SR leukemia): > 25 µM
GI50 (SW-620 colon): > 25 µM
TGI (SW-620 colon): > 25 µM
GI50 (T-47D breast): > 25 µM
TGI (T-47D breast): > 25 µM
GI50 (TK-10 renal): > 25 µM
TGI (TK-10 renal): > 25 µM
GI50 (U251 CNS): > 25 µM
TGI (U251 CNS): > 25 µM
GI50 (UACC-257 melanoma): > 25 µM
TGI (UACC-257 melanoma): > 25 µM
GI50 (UACC-62 melanoma): > 25 µM
TGI (UACC-62 melanoma): > 25 µM
GI50 (UO-31 renal): > 25 µM
TGI (UO-31 renal): > 25 µM
